# In PubChem BioAssay (NCI):
#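 Grown in 96-well plates, cells were treated for 48 hours with each compound at five concentrations. Insufficient inhibition: endpoint recorded as highest concentration tested. Abbreviation: GI50, concentration required for 50% inhibition of growth. TGI is the concentration that stops growth completely.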
# What was measured:
# Test in all cases: inhibition of tumour cell growth, NCI panel, 48 h
# 786-0 renal = test system: 786-0 renal
# A498 renal = test system: A498 renal
# A549 NSCLC = test system: A549 NSCLC
# ACHN renal = test system: ACHN renal
# BT-549 breast = test system: BT-549 breast
# CAKI-1 renal = test system: CAKI-1 renal
# CCRF-CEM leukemia = test system: CCRF-CEM leukemia
# COLO 205 colon = test system: COLO 205 colon
# DU-145 prostate = test system: DU-145 prostate
# EKVX NSCLC = test system: EKVX NSCLC
# HCC-2998 colon = test system: HCC-2998 colon
# HCT-116 colon = test system: HCT-116 colon
# HCT-15 colon = test system: HCT-15 colon
# HL-60(TB) leukemia = test system: HL-60(TB) leukemia
# HOP-62 NSCLC = test system: HOP-62 NSCLC
# HOP-92 NSCLC = test system: HOP-92 NSCLC
# HS 578T breast = test system: HS 578T breast
# HT29 colon = test system: HT29 colon
# IGROV1 ovarian = test system: IGROV1 ovarian
# K-562 leukemia = test system: K-562 leukemia
# KM12 colon = test system: KM12 colon
# LOX IMVI melanoma = test system: LOX IMVI melanoma
# M14 melanoma = test system: M14 melanoma
# MALME-3M melanoma = test system: MALME-3M melanoma
# MCF7 breast = test system: MCF7 breast
# MDA-MB-231 breast = test system: MDA-MB-231 breast
# MDA-MB-435 = test system: MDA-MB-435
# MOLT-4 leukemia = test system: MOLT-4 leukemia
# NCI-H226 lung = test system: NCI-H226 lung
# NCI-H23 lung = test system: NCI-H23 lung
# NCI-H460 lung = test system: NCI-H460 lung
# NCI-H522 lung = test system: NCI-H522 lung
# NCI/ADR-RES ovarian = test system: NCI/ADR-RES ovarian
# OVCAR-3 ovarian = test system: OVCAR-3 ovarian
# OVCAR-4 ovarian = test system: OVCAR-4 ovarian
# OVCAR-5 ovarian = test system: OVCAR-5 ovarian
# OVCAR-8 ovarian = test system: OVCAR-8 ovarian
# PC-3 prostate = test system: PC-3 prostate
# RPMI-8226 leukemia = test system: RPMI-8226 leukemia
# RXF 393 renal = test system: RXF 393 renal
# SF-268 CNS = test system: SF-268 CNS
# SF-295 CNS = test system: SF-295 CNS
# SF-539 CNS = test system: SF-539 CNS
# SK-MEL-2 melanoma = test system: SK-MEL-2 melanoma
# SK-MEL-28 melanoma = test system: SK-MEL-28 melanoma
# SK-MEL-5 melanoma = test system: SK-MEL-5 melanoma
# SK-OV-3 ovarian = test system: SK-OV-3 ovarian
# SN12C renal = test system: SN12C renal
# SNB-19 CNS = test system: SNB-19 CNS
# SNB-75 CNS = test system: SNB-75 CNS
# SR leukemia = test system: SR leukemia
# SW-620 colon = test system: SW-620 colon
# T-47D breast = test system: T-47D breast
# TK-10 renal = test system: TK-10 renal
# U251 CNS = test system: U251 CNS
# UACC-257 melanoma = test system: UACC-257 melanoma
# UACC-62 melanoma = test system: UACC-62 melanoma
# UO-31 renal = test system: UO-31 renal
compound,measurement,setting,value
Cn1ccnc1C(=O)/C=C/c1ccc(C(=O)Nc2ccccc2F)cc1,GI50,786-0 renal,1.69 µM
same,TGI,786-0 renal,3.32 µM
same,GI50,A498 renal,2.41 µM
same,TGI,A498 renal,8.21 µM
same,GI50,A549 NSCLC,3.01 µM
same,TGI,A549 NSCLC,13.2 µM
same,GI50,ACHN renal,2.01 µM
same,TGI,ACHN renal,4.15 µM
same,GI50,BT-549 breast,1.77 µM
same,TGI,BT-549 breast,4.21 µM
same,GI50,CAKI-1 renal,1.04 µM
same,TGI,CAKI-1 renal,4.33 µM
same,GI50,CCRF-CEM leukemia,1.18 µM
same,TGI,CCRF-CEM leukemia,7.54 µM
same,GI50,COLO 205 colon,2.74 µM
same,TGI,COLO 205 colon,6.67 µM
same,GI50,DU-145 prostate,1.64 µM
same,TGI,DU-145 prostate,3.32 µM
same,GI50,EKVX NSCLC,2.9 µM
same,TGI,EKVX NSCLC,11.5 µM
same,GI50,HCC-2998 colon,2.34 µM
same,TGI,HCC-2998 colon,4.67 µM
same,GI50,HCT-116 colon,0.862 µM
same,TGI,HCT-116 colon,2.35 µM
same,GI50,HCT-15 colon,1.33 µM
same,TGI,HCT-15 colon,4.06 µM
same,GI50,HL-60(TB) leukemia,1.6 µM
same,TGI,HL-60(TB) leukemia,4.33 µM
same,GI50,HOP-62 NSCLC,4.27 µM
same,TGI,HOP-62 NSCLC,17.1 µM
same,GI50,HOP-92 NSCLC,1.9 µM
same,TGI,HOP-92 NSCLC,7.07 µM
same,GI50,HS 578T breast,3.02 µM
same,TGI,HS 578T breast,15.4 µM
same,GI50,HT29 colon,2.49 µM
same,TGI,HT29 colon,6.68 µM
same,GI50,IGROV1 ovarian,2.12 µM
same,TGI,IGROV1 ovarian,5.05 µM
same,GI50,K-562 leukemia,0.372 µM
same,TGI,K-562 leukemia,> 100 µM
same,GI50,KM12 colon,1.89 µM
same,TGI,KM12 colon,3.82 µM
same,GI50,LOX IMVI melanoma,0.636 µM
same,TGI,LOX IMVI melanoma,2.24 µM
same,GI50,M14 melanoma,1.7 µM
same,TGI,M14 melanoma,3.81 µM
same,GI50,MALME-3M melanoma,1.93 µM
same,TGI,MALME-3M melanoma,4.58 µM
same,GI50,MCF7 breast,1.82 µM
same,TGI,MCF7 breast,6.63 µM
same,GI50,MDA-MB-231 breast,3.24 µM
same,TGI,MDA-MB-231 breast,10.5 µM
same,GI50,MDA-MB-435,2.09 µM
same,TGI,MDA-MB-435,5.04 µM
same,GI50,MOLT-4 leukemia,2.38 µM
same,TGI,MOLT-4 leukemia,6.41 µM
same,GI50,NCI-H226 lung,2.63 µM
same,TGI,NCI-H226 lung,10.3 µM
same,GI50,NCI-H23 lung,2.85 µM
same,TGI,NCI-H23 lung,9.43 µM
same,GI50,NCI-H460 lung,1.94 µM
same,TGI,NCI-H460 lung,5.43 µM
same,GI50,NCI-H522 lung,2.66 µM
same,TGI,NCI-H522 lung,8.76 µM
same,GI50,NCI/ADR-RES ovarian,3.29 µM
same,TGI,NCI/ADR-RES ovarian,22.5 µM
same,GI50,OVCAR-3 ovarian,2 µM
same,TGI,OVCAR-3 ovarian,4.57 µM
same,GI50,OVCAR-4 ovarian,2.76 µM
same,TGI,OVCAR-4 ovarian,12.8 µM
same,GI50,OVCAR-5 ovarian,2.42 µM
same,TGI,OVCAR-5 ovarian,6.42 µM
same,GI50,OVCAR-8 ovarian,3.68 µM
same,TGI,OVCAR-8 ovarian,21.6 µM
same,GI50,PC-3 prostate,1.89 µM
same,TGI,PC-3 prostate,4.47 µM
same,GI50,RPMI-8226 leukemia,0.567 µM
same,TGI,RPMI-8226 leukemia,2.82 µM
same,GI50,RXF 393 renal,1.75 µM
same,TGI,RXF 393 renal,3.63 µM
same,GI50,SF-268 CNS,2.46 µM
same,TGI,SF-268 CNS,9.16 µM
same,GI50,SF-295 CNS,4.6 µM
same,TGI,SF-295 CNS,16.3 µM
same,GI50,SF-539 CNS,1.75 µM
same,TGI,SF-539 CNS,4.24 µM
same,GI50,SK-MEL-2 melanoma,6.25 µM
same,TGI,SK-MEL-2 melanoma,28.1 µM
same,GI50,SK-MEL-28 melanoma,2.04 µM
same,TGI,SK-MEL-28 melanoma,4.59 µM
same,GI50,SK-MEL-5 melanoma,2.14 µM
same,TGI,SK-MEL-5 melanoma,4.56 µM
same,GI50,SK-OV-3 ovarian,6.53 µM
same,TGI,SK-OV-3 ovarian,20.6 µM
same,GI50,SN12C renal,2.63 µM
same,TGI,SN12C renal,9.56 µM
same,GI50,SNB-19 CNS,2.06 µM
same,TGI,SNB-19 CNS,5.66 µM
same,GI50,SNB-75 CNS,1.36 µM
same,TGI,SNB-75 CNS,8.03 µM
same,GI50,SR leukemia,0.304 µM
same,TGI,SR leukemia,2.34 µM
same,GI50,SW-620 colon,1.76 µM
same,TGI,SW-620 colon,6.29 µM
same,GI50,T-47D breast,2.9 µM
same,TGI,T-47D breast,17.8 µM
same,GI50,TK-10 renal,3.84 µM
same,TGI,TK-10 renal,15.9 µM
same,GI50,U251 CNS,1.3 µM
same,TGI,U251 CNS,3.29 µM
same,GI50,UACC-257 melanoma,3.51 µM
same,TGI,UACC-257 melanoma,14 µM
same,GI50,UACC-62 melanoma,1.98 µM
same,TGI,UACC-62 melanoma,4.47 µM
same,GI50,UO-31 renal,1.38 µM
same,TGI,UO-31 renal,2.67 µM
